We go through twelve compounds from article PMC9820303, “^αN-Acetyl β-Endorphin Is an Endogenous Ligand of σ1Rs That Regulates Mu-Opioid Receptor Signaling by Exchanging G Proteins for σ2Rs in σ1R Oligomers” (International Journal of Molecular Sciences, 2022).

Test [1] has as its system CD1 mice (wild-type and σ1R−/−). Kind of test: Supraspinal analgesia, warm water (52 °C) tail-flick test. It counts as in vivo, mouse. The conditions noted are these: for analgesia of the substance in σ1R−/− mice compared with wild-type: icv: morphine 3 nmol, β-End 1–31 0.5 nmol, DAMGO 0.1 nmol, DPDPE 10 nmol, WIN55,212-2 15 nmol, 8 mice per strain. How it is done: Upper panel: the withdrawal thresholds of the contralateral and ipsilateral paws were measured before (indicated as 0) and up to 14 days after surgery. […] Middle panel: 0.3 and 3 nmol of ^αN-acetyl β-End 1–31 were administered icv 7 days after surgery, and the nociceptive threshold was evaluated at the indicated postinjection intervals (in minutes). For every time interval studied in min or days, * indicates a significant difference from the group that received saline instead of ^αN-acetyl β-End 1–31; ϕ significant difference from the effect of 3 nmol ^αN-acetyl β-End 1–31. […] All data are presented as the mean ± SD of six mice. ANOVA followed by the Holm–Sidak multiple comparisons test, p < 0.05, 1-β > 0.80. […] Upper panel: wild-type mice were injected icv with saline, ^αN-acetyl β-End 1–31 (1 nmol/mouse) or the combination of the σ1R agonist PPCC (3 nmol/mouse) plus ^αN-acetyl β-End 1–31 20 min before morphine and β-End 1–31. Analgesia was evaluated by the warm water (52 °C) tail-flick test at the interval postinjection corresponding to their peak effect, 30 min. Lower panel: σ1R^−/− mice received 1 nmol ^αN-acetyl β-End 1–31, 20 min before morphine and β-End 1–31 and analgesia was evaluated as described above. Eight mice were used per strain and treatment. * Significant difference with respect to the group treated with morphine or β-End 1–31 alone. ANOVA followed by the Holm–Sidak multiple comparisons test, p < 0.05, 1-β > 0.80.
Figure 3 Effect of physiological β-End 1–31 derivatives on morphine and β-End 1–31 analgesia. […] (A) The mice were icv-injected with 25 nmol of β-End 1–26, β-End 1–27 and ^αN-acetylated derivatives 20 min before icv 0.5 nmol β-End 1–31. Analgesia was determined at the indicated postinjection intervals. (B) CD1 wild-type and σ1R^−/− mice were administered C terminal peptide sequences 27–31, 28–31 and 30–31 of β-End 1–31 through an icv injection 20 min before 0.5 nmol of the whole β-End 1–31 and morphine (10 nmols) were injected icv. […] (C) A series of exogenous σ1R ligands (3 nmol) were icv-injected 20 min before 0.5 nmol β-End 1–31 was administered via icv in wild-type mice. The σ1R antagonist S1RA was also icv-injected before β-End 1–31 was administered icv in σ1R^−/− mice. (D) The effects of several doses of S1RA on morphine analgesia were studied in wild-type and σ1R^−/− mice. […] ANOVA followed by the Holm–Sidak multiple comparisons test, p < 0.05, 1-β > 0.80.
(A) The effect of σ1R deletion on opioid- and cannabinoid-induced analgesia. Analgesic compounds were icv-injected into wild-type and σ1R^−/− mice, and analgesia was evaluated 30 min after morphine (3 nmol) and β-End 1–31 (0.5 nmol), 15 min after DAMGO (0.1 nmol) and DPDPE (10 nmol) and 10 min after WIN55,212-2 (15 nmol). The bars are the mean ± SD of eight mice per strain and treatment. * Significant difference with respect to the effect of the analgesic substance in the wild-type group. ANOVA followed by the Holm–Sidak multiple comparisons test, p < 0.05, 1-β > 0.80. (B) Coprecipitation of G proteins with MORs. Solubilized mouse brain cortical membranes enriched in synaptosomes (SBM) from CD1 wild-type (WT) and σ1R^−/− mice were solubilized with sonication in the presence of 1% NP-40. Non-soluble debris was eliminated, and the samples were then incubated overnight at 4 °C with affinity-purified biotinylated IgGs that were raised against extracellular regions of the MOR. Protein complexes that were immunoprecipitated with streptavidin agarose were extensively washed and then resolved by SDS-PAGE.

Another test concerns the target T1, σ1R-NR1 C1 (Mus musculus, UniProt O55242).
T1 construct: The coding region of the full-length murine σ1R (AF004927); GST (N, cleaved yes); made in house; host or cells: E. coli BL21 (KRX)
Kind of test: In vitro σ1R-NR1 C1 association of recombinant proteins (Western blot). It counts as biochemical, murine. The conditions noted are these: increasing concentrations; 30 min RT; vs control without ligand. How it is done:
(§1) Figure 7 Effect of β-End 1–31, ^αN-acetyl β-End 1–31 and their N-terminal derivatives on σ1R-σ2R, σ1R-NR1 C1 and σ1R-BiP associations. Amino acid sequence of β-End 1–31 showing derivatives 1–26 and 1–27. (A) HaloLink-attached σ2Rs were incubated for 30 min at RT in the presence of σ1Rs (100 nM) in 300 μL of 50 mM Tris-HCl (pH 7.4), 0.2% CHAPS, and 2.5 mM CaCl2. After removing the unbound σ1R proteins, the effects of increasing the peptide concentrations on σ1R-σ2R associations were studied. At the end of the incubation, protein complexes bound to HaloLink-σ2R were obtained by centrifugation, washed three times, solubilized in 2× Laemmli buffer containing β-mercaptoethanol, resolved by SDS-PAGE, and analyzed by Western blotting (for more details, see Section 4). This protocol was also used to assess the effect of ligands on (B) σ1R-NR1 C1 and (C) σ1R-BiP associations. Data were compared to that of the control, which was obtained in the absence of ligands. (A–C) Data are the mean ± SD, n = 3. (D) The β-End 1–31 structural models were predicted by Novafold (DNASTAR Lasergene protein v.17, Inc., Madison, WI, USA). Ribbon model: The 3D structure, charge distribution and hydrophobicity map of β-End 1–31 are shown. Positive charges are shown in red and negative charges in blue. Polar surfaces are shown in yellow, and nonpolar surfaces are shown in orange. Linear model: the opioid (1–5) and flexible region (8–11) sequences are shown in green and orange, respectively, and the amphiphilic helix (15–25) is shown in pink.
(§2) The recombinant σ1R (100 nM) was incubated either with Haloprotein (negative control) or together with the immobilized σ2R, NR1 C0-C1-C2 or BiP proteins in 300 µL of a buffer containing 50 mM Tris-HCl (pH 7.4) and 0.2% CHAPS in the presence of 2.5 mM CaCl2 for 30 min at RT. After removal of the unbound σ1R, the agarose-attached complexes were incubated for 30 min with rotation at RT in the presence of increasing concentrations of the ligands in a final reaction volume of 300 µL [50 mM Tris-HCl (pH 7.4), 2.5 mM CaCl2 and 0.2% CHAPS]. Ligands were usually dissolved in aqueous solutions; however, when an organic solvent such as DMSO was required to incorporate, e.g., pregnenolone sulfate, the solvent remained below 1% in the assay buffer. Agarose pellets containing the bound proteins were obtained by centrifugation, washed and resuspended thrice in the presence of 2.5 mM CaCl2, solubilized in 2× Laemmli buffer plus β-mercaptoethanol, and analyzed by Western blotting.
(§3) Because all the assays were performed with recombinant proteins, the immune signals provided a single band of the expected size, which was used for the subsequent densitometry analysis. Accordingly, no other regions of the blots provided information and were routinely excluded from the analysis.
Figure S8. Effect of the physiological and nonphysiological sequences of β-End 1-31 and classical σ1R ligands on BiP-σ1R, σ2R-σ1R and NR1 C1-σ1R associations . […]
D) Agarose-NR1 C1 loaded with […]
σ1Rs were incubated in the absence (control) and with nonphysiological derivatives of β-End 1-31. A-D) The σ1Rs that remained attached to the agarose complexes were evaluated by Western blotting. The […]
(1 picture or pasted object on this page, not shown here)
Figure S9. Effect of σ1R agonist/antagonist ligands on σ1R-NR1 C1 associations. Θ-Agarose-NR1 C1 was loaded with recombinant σ1Rs. After unbound σ1R proteins were removed, the complexes were incubated with (A) 1 nM β-End 1-31, (B) αN-acetyl β-End 1-31, (C-D) β-End 28-31 in the absence (black columns) and presence of (A) 10 nM or (B-D) increasing concentrations of competing σ1R ligands as indicated. The σ1Rs that remained attached to the Θ-σ2Rs were evaluated by Western blotting. The […]
Prog is progesterone; PregSulfate is pregnenolone sulfate; Nac is […]

In the next test the target is σ1R-σ2R (Mus musculus, UniProt O55242). Kind of test: In vitro σ1R-σ2R association of recombinant proteins (HaloLink-σ2R, Western blot). Set-up: The coding region of the full-length murine σ1R (AF004927); GST (N, cleaved yes); made in house; host or cells: E. coli BL21 (KRX). The conditions noted are these: increasing concentrations; 30 min RT; vs control without ligand. Format: biochemical, murine. How it is done: as §1, §2, §3
Figure S7. Effect of σ1R agonist/antagonist ligands on σ1R-σ2R heterodimers. (A-C) Agarose (Θ)- attached σ2Rs captured recombinant σ1Rs. After removing unbound σ1R proteins, the Θ-σ2R.σ1R complexes were incubated with a ﬁxed concentration of a selected L1 ligand (indicated in brackets) in the absence and presence of increasing concentrations of competing σ1R ligands as indicated. The σ1Rs that remained attached to the Θ-σ2Rs were evaluated by Western blotting. * Signiﬁcant differences with respect to the control group that was incubated without L1 ligands. ANOVA followed by the Holm-Sidak multiple comparisons test, p < 0.05. For details, see Methods and Figure 6A. Representative blots are […]
Figure S8. Effect of the physiological and nonphysiological sequences of β-End 1-31 and classical σ1R ligands on BiP-σ1R, σ2R-σ1R and NR1 C1-σ1R associations . Agarose-BiP was loaded with σ1Rs, and after the unbound σ1Rs were removed, the agarose-BiP-σ1R complexes were incubated in the absence (control) and presence of increasing concentrations of (A) β-End 1-31 C-terminal physiological derivatives and (B) classical σ1R ligands. C) Agarose-σ2R loaded with σ1Rs was incubated in the […]

Counter-ions that a name gives are not always drawn.

σ1R-σ2R, sequence (O55242 whole entry): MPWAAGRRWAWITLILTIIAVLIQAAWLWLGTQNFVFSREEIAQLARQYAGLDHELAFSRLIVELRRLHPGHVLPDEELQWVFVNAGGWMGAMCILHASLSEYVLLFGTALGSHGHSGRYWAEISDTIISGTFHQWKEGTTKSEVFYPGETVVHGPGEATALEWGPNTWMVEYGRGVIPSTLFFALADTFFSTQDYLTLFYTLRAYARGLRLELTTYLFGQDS
T1 sequence (O55242 whole entry): as above

For “β-End 1–16: nonphysiological fragment of β-End 1–31 (YGGFMTSEKSQTPLVT; Beta-endorphin; UniProt P01189 237-252, looked up, fragment)”, the “effect on β-End 1–31 analgesia, nonphysiological fragments” value in test [1] (1 nmol icv 20 min before 0.5 nmol β-End 1–31 icv, 6 mice) was “practically did not alter β-End 1–31 analgesia”.
For “([D-Ala2, N-MePhe4, Gly-ol]-enkephalin [DAMGO]”, the “analgesia of the substance in σ1R−/− mice compared with wild-type” value (from here on “analgesia … compared with wild-type”) in test [1] is “augmented”.
With `CN1CC[C@]23c4c5ccc(O)c4O[C@H]2[C@@H](O)C=C[C@H]3[C@H]1C5` [morphine, morphine sulfate], the “analgesia … compared with wild-type” value in test [1] is reported as “increased analgesic response”.
For “YGGFL [leu-enkephalin, leucine-enkephalin 1–5]”, the “effect on σ1R-NR1 C1 association” value on σ1R-NR1 C1 is listed as “dissociated σ1R-NR1 C1 complexes”. In addition, the “effect on σ1R-σ2R association” value at σ1R-σ2R was “disrupted this association”.
For the compound “GGFM [met-enkephalin 2–5 aminopeptidase product]”, the “effect on σ1R-σ2R association” value at σ1R-σ2R is listed as “promoted the sigma receptor heterodimer”.
As for “YGGFM [met-enkephalin, methionine-enkephalin, β-End N-terminal derivative 1–5]”, the “effect on σ1R-NR1 C1 association” value at σ1R-NR1 C1 was “enhancement”. Further, the “effect on σ1R-σ2R association” value at σ1R-σ2R is on record as “promoted the sigma receptor heterodimer”.
For the compound “^αN-acetyl leu-enkephalin: chimeric ^αN-acetylated leu-enkephalin”, in the test with σ1R-σ2R, the “effect on σ1R-σ2R association” value is “protective”.
On the same count and under the same terms, as for GGFL [leu-enkephalin 2–5 metabolite], the entry is “disrupted this association”.
For `Cc1c(C(=O)c2cccc3ccccc23)c2cccc3c2n1[C@H](CN1CCOCC1)CO3` [WIN55,212–2], in test [1], the “analgesia … compared with wild-type” value is “did not significantly change”.
Consider “β-End 1–4: fragment 1–4 of β-End 1–31 (YGGF; Beta-endorphin; UniProt P01189 237-240, looked up, fragment)”, for which the “effect on σ1R-NR1 C1 association” value in the test with σ1R-NR1 C1 is on record as “enhancement”.
([D-Pen2,D-Pen5]enkephalin) [DPDPE]: the “analgesia … compared with wild-type” value in test [1] is given as “did not significantly change”.
In the case of “β-End 2–31: β-End 1–31 without Y1 (GGFMTSEKSQTPLVTLFKNAIIKNAYKKGE; Beta-endorphin; UniProt P01189 238-267, looked up, fragment)”, the “effect on σ1R-NR1 C1 association” value in the test with σ1R-NR1 C1 is listed as “promoting the σ1R-NR1 C1 association”. The “effect on σ1R-σ2R association” value with σ1R-σ2R was “diminished σ1R-σ2R associations”.
